Reference: PMC9698483, “Berbamine Reduces Chloroquine-Induced Itch in Mice through Inhibition of MrgprX1” (International Journal of Molecular Sciences, 2022)

What was measured:
CQ-induced itch = test system: CQ-induced itch; set-up: method as in PMID 16510108, PMID 32536619, PMID 35066892; conditions: cited from earlier work
MrgprX1 or MrgprA3 = test system: MrgprX1 or MrgprA3; set-up: method as in PMID 16510108, PMID 32536619; conditions: read-out: IC50 (potency as antagonist); cited from earlier work
histamine-induced itch = test system: histamine-induced itch; set-up: method as in PMID 16510108, PMID 32536619, PMID 35066892; conditions: cited from earlier work
PAR2 = target: T1, PAR2 (Homo sapiens, UniProt P55085); assay: PAR2-AP-induced activation of PAR2 in HT29 cells (calcium); assay type: cell-based; conditions: 30 μM compound, 10 min prior to 30 μM PAR2-AP
T1 construct: endogenous in cells; host or cells: HT29
T1 sequence (P55085 26-397): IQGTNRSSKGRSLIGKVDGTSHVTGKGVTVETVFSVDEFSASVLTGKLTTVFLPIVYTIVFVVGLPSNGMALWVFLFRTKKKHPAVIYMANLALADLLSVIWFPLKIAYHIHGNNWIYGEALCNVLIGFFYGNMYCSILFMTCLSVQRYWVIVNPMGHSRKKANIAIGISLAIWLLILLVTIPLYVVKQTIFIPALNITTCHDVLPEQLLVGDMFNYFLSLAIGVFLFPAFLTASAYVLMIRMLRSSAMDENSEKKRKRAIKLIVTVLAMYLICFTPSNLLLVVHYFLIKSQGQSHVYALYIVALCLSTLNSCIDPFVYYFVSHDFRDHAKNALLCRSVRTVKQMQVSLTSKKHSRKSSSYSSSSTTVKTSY
Protocol: (§1) To investigate the effect of berbamine on other pruritogenic GPCRs, we observed the effect of berbamine on histamine H1 receptor (H1R), histamine H4 receptor (H4R), MrgprC11, MrgprX4, PAR2, and TGR5.
(§2) Figure 3 Effects of berbamine on the activity of other pruritogenic GPCRs: (A,B) Effect of berbamine on histamine 1 receptor (H1R) and histamine 4 receptor (H4R). H1R- and H4R-expressing HEK293T cells were pretreated with 30 μM BBM for 10 min prior to 100 μM histamine treatment. […] (C) Effect of berbamine on PAR2. HT29 cells were pretreated with BBM for 10 min prior to 30 μM PAR2-AP treatment. […] (D) Effect of berbamine on MrgprC11. MrgprC11-expressing HEK293T cells were pretreated with BBM for 10 min prior to 100 μM […] treatment. (E) Effect of berbamine on MrgprX4. MrgprX4-expressing HEK293T cells were pretreated with BBM for 10 min prior to 80 μM DCA treatment. (F) Effect of berbamine on TGR5. TGR5 activity was measured using a YFP fluorescence quenching assay. CHO-K1 cells coexpressing TGR5 and a halide sensor YFP were pretreated with BBM and 80 μM DCA for 10 min prior to I^- treatment. Results were summarized as means ± S.E. (n = 6). NTC, nontransfected cells.
(§3) Intracellular calcium levels were measured using a Fluo-4 NW calcium assay kit (Invitrogen, Carlsbad, CA) as per the manufacturer’s protocol in HEK293T and HT29 cells. […]

[1] = test system: ERK1/2 phosphorylation through MrgprX1; assay: Immunoblot of ERK1/2 phosphorylation in HEK293T cells expressing MrgprX1; assay type: cell-based, human; conditions: HEK-MrgprX1 cells
[2] = test system: CQ-resistant strain of P. falciparum; set-up: method as in doi:10.1002/ddr.430300405; conditions: in vitro, compound alone; read-out: IC50 antimalaria effect, CQ-resistant strain; cited from earlier work
MrgprX1 = target: T2, MrgprX1 (Homo sapiens, UniProt Q96LB2); assay: Intracellular calcium measurement (Fluo-4 NW) in HEK293T cells expressing MrgprX1; assay type: cell-based
T2 construct: expressed in transfected cells
T2 sequence (Q96LB2 whole entry): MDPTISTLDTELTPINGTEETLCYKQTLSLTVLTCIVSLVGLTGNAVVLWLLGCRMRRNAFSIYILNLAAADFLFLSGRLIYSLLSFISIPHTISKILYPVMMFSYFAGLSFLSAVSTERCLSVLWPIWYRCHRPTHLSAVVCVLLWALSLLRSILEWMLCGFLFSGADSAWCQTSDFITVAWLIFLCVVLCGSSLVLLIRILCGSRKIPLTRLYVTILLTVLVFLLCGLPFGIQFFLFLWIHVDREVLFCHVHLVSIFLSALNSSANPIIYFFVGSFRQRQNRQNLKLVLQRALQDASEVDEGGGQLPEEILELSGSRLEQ
Protocol: To identify novel antagonists of MrgprX1, a cell-based screening assay was established. […] Cells were treated with the indicated concentrations of CQ where the arrow indicates. (B) Summary of dose-response (mean ± S.E., n = 6). (C) Representative Fluo−4 fluorescence traces of MrgprX1 antagonist screening. Cells were treated with 30 μM of the test compounds for 10 min prior to treatment with 300 μM CQ.
Figure 2 Effect of berbamine and closantel on CQ- and ionomycin-induced increases in intracellular calcium levels: (A,B) Intracellular calcium levels were measured using Fluo−4 NW in HEK293T cells expressing MrgprX1. The cells were pretreated with the indicated concentrations of berbamine (BBM) and closantel (CLS) for 10 min prior to treatment with 300 μM CQ. (C) Summary of dose-response (mean ± S.E., n = 6). […] The cells were pretreated with the indicated concentrations of BBM and CLS for 10 min before treatment with ionomycin. (F) Summary of dose–response (mean ± S.E., n = 6).
Intracellular calcium levels were measured using a Fluo-4 NW calcium assay kit (Invitrogen, Carlsbad, CA) as per the manufacturer’s protocol in HEK293T and HT29 cells. Briefly, the cells were plated in a 96-well black-walled plate and incubated with 100 μL of assay buffer including Fluo-4 NW. […] Intracellular calcium increase was induced with the application of the indicated agonist. All modulators were dissolved in DMSO, and cells were treated with a final concentration of 1% DMSO.

MrgprA3 = target: T3, MrgprA3 (Mus musculus, UniProt Q91WW3); assay: Intracellular calcium measurement in HEK293T cells expressing mouse MrgprA3; assay type: cell-based; conditions: HEK293T cells overexpressing MrgprA3; read-out: EC50 of MrgprA3 activation
T3 construct: expressed in transfected cells; host or cells: HEK293T
T3 sequence (Q91WW3 1-302): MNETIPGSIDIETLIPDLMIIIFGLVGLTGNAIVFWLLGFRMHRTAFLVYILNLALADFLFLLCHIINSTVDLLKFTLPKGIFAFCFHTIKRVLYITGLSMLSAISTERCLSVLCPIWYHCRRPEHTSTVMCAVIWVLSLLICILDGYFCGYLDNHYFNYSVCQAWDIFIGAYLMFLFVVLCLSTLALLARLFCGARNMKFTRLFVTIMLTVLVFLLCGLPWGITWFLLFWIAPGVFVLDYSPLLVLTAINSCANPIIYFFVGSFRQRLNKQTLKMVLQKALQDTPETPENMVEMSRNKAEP
Protocol: MRGPRA3 and MRGPRC11 are mouse orthologs of human MRGPRX1, and MrgprA3 is also activated by CQ, resulting in CQ-induced pruritus. To investigate the inhibitory effect of berbamine on MrgprA3, we established HEK293T cells overexpressing MrgprA3. […] We further investigated whether berbamine inhibited CQ-induced ERK1/2 phosphorylation in HEK-MrgprA3 cells. Strong and significant ERK1/2 phosphorylation was observed following CQ application, and ERK1/2 phosphorylation peaked 5 min after CQ treatment (Figure 6A,B).
Figure 5 Effect of berbamine on CQ-induced activation of MrgprA3: (A) Intracellular calcium levels were measured in HEK293T cells expressing mouse MrgprA3. Cells were treated with indicated concentrations of CQ. (B) Summary of dose–response (mean ± S.E., n = 6). (C) Cells were pretreated with indicated concentrations of berbamine for 10 min prior to 300 μM CQ treatment. (D) Summary of dose-response (mean ± S.E., n = 6). (E) Representative traces of intracellular calcium responses to BAM8−22 in HEK293T cells expressing MrgprC11. […]
(§4) Intracellular calcium levels were measured using a Fluo-4 NW calcium assay kit (Invitrogen, Carlsbad, CA) as per the manufacturer’s protocol in HEK293T and HT29 cells. […] After 1 h of incubation, Fluo-4 fluorescence was recorded with a FLUOstar Omega microplate reader equipped with syringe pumps and custom Fluo-4 excitation/emission filters (485/538 nm). […]

[3] = test system: ERK1/2 phosphorylation through MrgprA3; assay: Immunoblot of ERK1/2 phosphorylation in HEK293T cells expressing MrgprA3; assay type: cell-based, mouse; conditions: HEK-MrgprA3 cells
[4] = target: T4, histamine H1 receptor (H1R) (Homo sapiens, UniProt P35367); assay: Histamine-induced activation of H1R in H1R-expressing HEK293T cells (calcium); assay type: cell-based; conditions: 30 μM compound, 10 min prior to 100 μM histamine
T4 construct: expressed in transfected cells; host or cells: HEK293T
T4 sequence (P35367 whole entry, species assumed): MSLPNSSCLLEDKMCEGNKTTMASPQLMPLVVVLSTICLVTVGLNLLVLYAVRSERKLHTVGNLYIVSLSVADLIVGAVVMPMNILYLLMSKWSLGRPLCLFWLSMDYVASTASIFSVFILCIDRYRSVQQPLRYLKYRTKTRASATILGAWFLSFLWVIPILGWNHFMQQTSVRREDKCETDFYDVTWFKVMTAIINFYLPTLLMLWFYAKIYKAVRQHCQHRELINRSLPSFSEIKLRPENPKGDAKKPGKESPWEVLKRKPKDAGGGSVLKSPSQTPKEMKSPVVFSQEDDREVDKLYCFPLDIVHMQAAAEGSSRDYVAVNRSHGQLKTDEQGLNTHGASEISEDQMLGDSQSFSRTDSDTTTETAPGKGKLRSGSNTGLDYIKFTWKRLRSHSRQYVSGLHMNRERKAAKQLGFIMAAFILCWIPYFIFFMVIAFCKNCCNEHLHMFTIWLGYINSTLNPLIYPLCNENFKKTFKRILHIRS
Protocol: as §1, §2, §3

HEK293T cells = assay: Ionomycin-induced increase in intracellular calcium levels in HEK293T cells; assay type: cell-based; conditions: 10 μM ionomycin, 10 min pretreatment
Protocol: To investigate whether berbamine and closantel affect calcium signaling pathways, we observed the effects of berbamine and closantel on CQ- and ionomycin-induced increases in intracellular calcium concentrations in HEK-MrgprX1 and HEK293T cells, respectively.
Figure 2 Effect of berbamine and closantel on CQ- and ionomycin-induced increases in intracellular calcium levels: (A,B) Intracellular calcium levels were measured using Fluo−4 NW in HEK293T cells expressing MrgprX1. The cells were pretreated with the indicated concentrations of berbamine (BBM) and closantel (CLS) for 10 min prior to treatment with 300 μM CQ. (C) Summary of dose-response (mean ± S.E., n = 6). (D,E) Intracellular calcium levels were increased with 10 μM ionomycin in HEK239T cells. The cells were pretreated with the indicated concentrations of BBM and CLS for 10 min before treatment with ionomycin. (F) Summary of dose–response (mean ± S.E., n = 6).
as §4

Q: With `CC=CC(=O)N(CC)c1ccccc1C` (mixture of isomers) [crotamiton] as the compound, how does the “effect on CQ-induced itch” value (CQ-induced itch) read?
A: The value was “inhibits”.

Q: And the IC50 (MrgprX1 or MrgprA3)?
A: The IC50 was 326 µM.

Q: What about the “effect on histamine-induced itch” value (histamine-induced itch) of the same compound?
A: The value was “inhibits”.

Q: With `O=C1O[C@H]2[C@@H]3OC(=O)c4cc(O)c(O)c(O)c4-c4c(O)c(O)c5oc(=O)c6c(c(O)c(O)c7oc(=O)c4c5c76)-c4c(cc(O)c(O)c4O)C(=O)OC[C@H]3OC(O)[C@@H]2OC(=O)c2cc(O)c(O)c(O)c2-c2c1cc(O)c(O)c2O` (mixture of isomers) [punicalagin, reference compound] as the compound, how does the “effect on PAR2-AP-induced activation of PAR2” value (PAR2) read?
A: Its value is “significantly blocked”.

Q: With `CCN(CC)CCCC(C)Nc1ccnc2cc(Cl)ccc12` (stereo not shown) [CQ, Chloroquine] as the compound, how does the “time of peak ERK1/2 phosphorylation after treatment” value [1] read?
A: The value was 10 min.

Q: And the IC50 [2]?
A: Its IC50 is 0.203 ± 0.0707 µM.

Q: And the EC50 (MrgprX1; HEK-MrgprX1 cells, Fluo-4, read-out: EC50 of increase in intracellular calcium levels (MrgprX1 activation))?
A: Its EC50 is 96 µM.

Q: And the EC50 (MrgprA3)?
A: The EC50 was 234 µM.

Q: And the “time of peak ERK1/2 phosphorylation after treatment” value [3]?
A: The value was 5 min.

Q: Which “effect on histamine-induced activation of H1R” value [4] does the source give for `CN1CCC(=C2c3ccccc3CCn3c(C=O)cnc32)CC1` [alcaftadine, reference compound] here?
A: The value was “significantly blocked”.

Q: What does the source list for `Cc1cc(C(C#N)c2ccc(Cl)cc2)c(Cl)cc1NC(=O)c1cc(I)cc(I)c1O` (stereo not shown) [closantel, reference compound]?
A: inhibition at 30 µM (MrgprX1; HEK-293T, read-out: inhibition of the CQ-induced activation of MrgprX1 (screening)): > 90%; IC50 (MrgprX1; pretreated 10 min prior to 300 μM CQ, read-out: IC50 of inhibition of CQ-induced MrgprX1 activation): 3.6 µM; effect on ionomycin-induced increase in intracellular calcium levels (HEK293T cells): inhibited it in a dose-dependent manner
